In US4731451A, “N-((2-oxo-3(2H)benzothiazolyl)methyl)-2-chloroacetanilides” (Monsanto Company, priority 1980, dated 1988):

Key:
Type in all cases: in vivo
Barnyardgrass [1] = assay: Pre-emergent herbicidal activity (Table II); details: 2-3 weeks
In short: (§1)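 Treated soil cover layer (known amount of active ingredient, solvent or wettable powder) applied over seeds/propagules in pans. Greenhouse bench, watered from below; injury rated at ~2-3 weeks.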

Canada Thistle = assay: Pre-emergent herbicidal activity (Table II); details: 2-3 weeks
In short: as §1

Cocklebur [2] = assay: Pre-emergent herbicidal activity (Table II); details: 2-3 weeks
In short: as §1

Downy Brome [3] = assay: Pre-emergent herbicidal activity (Table II); details: 2-3 weeks
In short: as §1

Johnsongrass = assay: Pre-emergent herbicidal activity (Table II); details: 2-3 weeks
In short: as §1

Lambsquarters [4] = assay: Pre-emergent herbicidal activity (Table II); details: 2-3 weeks
In short: as §1

Morningglory [5] = assay: Pre-emergent herbicidal activity (Table II); details: 2-3 weeks
In short: as §1

Quackgrass = assay: Pre-emergent herbicidal activity (Table II); details: 2-3 weeks
In short: as §1

Smartweed [6] = assay: Pre-emergent herbicidal activity (Table II); details: 2-3 weeks
In short: as §1

Velvetleaf [7] = assay: Pre-emergent herbicidal activity (Table II); details: 2-3 weeks
In short: as §1

Yellow Nutsedge = assay: Pre-emergent herbicidal activity (Table II); details: 2-3 weeks
In short: as §1

Barnyardgrass [8] = assay: Pre-emergent herbicidal activity (Table III)
Method: (§2) The pre-emergence tests are conducted as follows:
(§3) A good grade of top soil is placed in aluminum pans and compacted to a depth of three-eighths to one-half inch from the top of the pan. On the top of the soil is placed a predetermined number of seeds or vegetative propagules of various plant species. The soil required to level fill the pans after seeding or adding vegetative propagules is weighed into a pan. A known amount of the active ingredient applied in a solvent or as a wettable powder suspension and the soil are thoroughly mixed, and used as a cover layer for prepared pans. After treatment, the pans are moved into a greenhouse bench where they are watered from below as needed to give adequate moisture for germination and growth.
(§4) Approximately 2-3 weeks after seeding and treating, the plants are observed and the results recorded. The herbicidal rating is obtained by means of fixed scale based on the percent injury of each plant species. The ratings are defined as follows: […]
(§5) The compounds were further tested by utilizing the above procedure on the following plant species: […]

Cocklebur [9] = assay: Pre-emergent herbicidal activity (Table III)
Method: as §2, §3, §4, §5

Crabgrass = assay: Pre-emergent herbicidal activity (Table III)
Method: as §2, §3, §4, §5

Downy Brome [10] = assay: Pre-emergent herbicidal activity (Table III)
Method: as §2, §3, §4, §5

Hemp Sesbania = assay: Pre-emergent herbicidal activity (Table III)
Method: as §2, §3, §4, §5

Lambsquarters [11] = assay: Pre-emergent herbicidal activity (Table III)
Method: as §2, §3, §4, §5

Morningglory [12] = assay: Pre-emergent herbicidal activity (Table III)
Method: as §2, §3, §4, §5

Panicum = assay: Pre-emergent herbicidal activity (Table III)
Method: as §2, §3, §4, §5

Rice = assay: Pre-emergent herbicidal activity (Table III)
Method: as §2, §3, §4, §5

Smartweed [13] = assay: Pre-emergent herbicidal activity (Table III)
Method: as §2, §3, §4, §5

Sorghum = assay: Pre-emergent herbicidal activity (Table III)
Method: as §2, §3, §4, §5

Soybean = assay: Pre-emergent herbicidal activity (Table III)
Method: as §2, §3, §4, §5

Sugarbeet = assay: Pre-emergent herbicidal activity (Table III)
Method: as §2, §3, §4, §5

Velvetleaf [14] = assay: Pre-emergent herbicidal activity (Table III)
Method: as §2, §3, §4, §5

Wheat = assay: Pre-emergent herbicidal activity (Table III)
Method: as §2, §3, §4, §5

Wild Buckwheat = assay: Pre-emergent herbicidal activity (Table III)
Method: as §2, §3, §4, §5
Further: ranges in brackets are in %.

CC1=C(N(Cn2c(=O)sc3ccccc32)C(=O)CCl)C(C)CCC1 (stereo not shown) [Example 9, N--[(2-oxo-3(2H)--benzothiazolyl)methyl]-N--(2,6-dimethyl-1-cyclohexen-1-yl)-2-chloroamide]
Herbicidal rating (Barnyardgrass [1]; 5.6 kg/ha): 3 (75-100) | Herbicidal rating (Barnyardgrass [1]; 11.2 kg/ha): 3 (75-100) | Herbicidal rating (Canada Thistle; 5.6 kg/ha): 0 (0-24) | Herbicidal rating (Canada Thistle; 11.2 kg/ha): 0 (0-24) | Herbicidal rating (Cocklebur [2]; 5.6 kg/ha): 0 (0-24) | Herbicidal rating (Cocklebur [2]; 11.2 kg/ha): 0 (0-24) | Herbicidal rating (Downy Brome [3]; 5.6 kg/ha): 0 (0-24) | Herbicidal rating (Downy Brome [3]; 11.2 kg/ha): 2 (50-74) | Herbicidal rating (Johnsongrass; 5.6 kg/ha): 0 (0-24) | Herbicidal rating (Johnsongrass; 11.2 kg/ha): 0 (0-24) | Herbicidal rating (Lambsquarters [4]; 5.6 kg/ha): 1 (25-49) | Herbicidal rating (Lambsquarters [4]; 11.2 kg/ha): 1 (25-49) | Herbicidal rating (Morningglory [5]; 5.6 kg/ha): 0 (0-24) | Herbicidal rating (Morningglory [5]; 11.2 kg/ha): 0 (0-24) | Herbicidal rating (Quackgrass; 5.6 kg/ha): 0 (0-24) | Herbicidal rating (Quackgrass; 11.2 kg/ha): 1 (25-49) | Herbicidal rating (Smartweed [6]; 5.6 kg/ha): 0 (0-24) | Herbicidal rating (Smartweed [6]; 11.2 kg/ha): 3 (75-100) | Herbicidal rating (Velvetleaf [7]; 5.6 kg/ha): 0 (0-24) | Herbicidal rating (Velvetleaf [7]; 11.2 kg/ha): 0 (0-24) | Herbicidal rating (Yellow Nutsedge; 5.6 kg/ha): 0 (0-24) | Herbicidal rating (Yellow Nutsedge; 11.2 kg/ha): 0 (0-24) | Herbicidal rating (Barnyardgrass [8]; 0.26 kg/ha): 2 (50-74) | Herbicidal rating (Barnyardgrass [8]; 1.12 kg/ha): 3 (75-100) | Herbicidal rating (Barnyardgrass [8]; 5.6 kg/ha): 3 (75-100) | Herbicidal rating (Cocklebur [9]; 0.26 kg/ha): 0 (0-24) | Herbicidal rating (Cocklebur [9]; 1.12 kg/ha): 0 (0-24) | Herbicidal rating (Crabgrass; 0.26 kg/ha): 1 (25-49) | Herbicidal rating (Crabgrass; 1.12 kg/ha): 2 (50-74) | Herbicidal rating (Crabgrass; 5.6 kg/ha): 3 (75-100) | Herbicidal rating (Downy Brome [10]; 0.26 kg/ha): 0 (0-24) | Herbicidal rating (Downy Brome [10]; 1.12 kg/ha): 0 (0-24) | Herbicidal rating (Downy Brome [10]; 5.6 kg/ha): 2 (50-74) | Herbicidal rating (Hemp Sesbania; 1.12 kg/ha): 0 (0-24) | Herbicidal rating (Hemp Sesbania; 5.6 kg/ha): 0 (0-24) | Herbicidal rating (Lambsquarters [11]; 0.26 kg/ha): 0 (0-24) | Herbicidal rating (Lambsquarters [11]; 1.12 kg/ha): 0 (0-24) | Herbicidal rating (Lambsquarters [11]; 5.6 kg/ha): 1 (25-49) | Herbicidal rating (Morningglory [12]; 1.12 kg/ha): 0 (0-24) | Herbicidal rating (Morningglory [12]; 5.6 kg/ha): 0 (0-24) | Herbicidal rating (Panicum; 0.26 kg/ha): 0 (0-24) | Herbicidal rating (Panicum; 1.12 kg/ha): 0 (0-24) | Herbicidal rating (Panicum; 5.6 kg/ha): 3 (75-100) | Herbicidal rating (Rice; 0.26 kg/ha): 0 (0-24) | Herbicidal rating (Rice; 1.12 kg/ha): 2 (50-74) | Herbicidal rating (Rice; 5.6 kg/ha): 2 (50-74) | Herbicidal rating (Smartweed [13]; 0.26 kg/ha): 0 (0-24) | Herbicidal rating (Smartweed [13]; 1.12 kg/ha): 0 (0-24) | Herbicidal rating (Smartweed [13]; 5.6 kg/ha): 1 (25-49) | Herbicidal rating (Sorghum; 0.26 kg/ha): 0 (0-24) | Herbicidal rating (Sorghum; 1.12 kg/ha): 0 (0-24) | Herbicidal rating (Sorghum; 5.6 kg/ha): 2 (50-74) | Herbicidal rating (Soybean; 0.26 kg/ha): 0 (0-24) | Herbicidal rating (Soybean; 1.12 kg/ha): 0 (0-24) | Herbicidal rating (Soybean; 5.6 kg/ha): 0 (0-24) | Herbicidal rating (Sugarbeet; 0.26 kg/ha): 0 (0-24) | Herbicidal rating (Sugarbeet; 1.12 kg/ha): 0 (0-24) | Herbicidal rating (Sugarbeet; 5.6 kg/ha): 1 (25-49) | Herbicidal rating (Velvetleaf [14]; 0.26 kg/ha): 0 (0-24) | Herbicidal rating (Velvetleaf [14]; 1.12 kg/ha): 0 (0-24) | Herbicidal rating (Velvetleaf [14]; 5.6 kg/ha): 0 (0-24) | Herbicidal rating (Wheat; 0.26 kg/ha): 0 (0-24) | Herbicidal rating (Wheat; 1.12 kg/ha): 0 (0-24) | Herbicidal rating (Wheat; 5.6 kg/ha): 2 (50-74) | Herbicidal rating (Wild Buckwheat; 0.26 kg/ha): 0 (0-24) | Herbicidal rating (Wild Buckwheat; 1.12 kg/ha): 0 (0-24) | Herbicidal rating (Wild Buckwheat; 5.6 kg/ha): 0 (0-24)
